Assay [1] has as its system isolation-induced aggression. The assay can be described thus: Antiaggressive effects: isolation-induced aggression in mice. Conditions: isolated mice, i.p. In kind it is in vivo. From the text:
The antiaggressive effects of the compounds of the invention were investigated by two methods, one of them testing for an inhibition of aggressive behavior in peviously isolated mice (Yen C. Y., Stanger A. L., and Millman N, Arch. Int. Pharmacodyn. Therap. (1959), 123, p. 179-185), and the other in isolated and bulbectomized rats (Garattini S. and Sigg E. B. "Aggressive Behaviour" p. 47-55 Ed. Excerpta Medica Found., Amsterdam, 1969).
(Tables IX and X, s=significant, p<0.05).

The test system of assay [2] is apomorphine-induced hypothermia. Description: Antagonism with respect to apomorphine-induced hypothermia in mice. In kind it is in vivo. To be noted: Mus musculus, ip, apomorphine 1 mg.kg^-1 s.c., after 2 hours. The protocol: Testing for an antagonism with respect to apomorphine-induced hypothermia in mice was performed according to the method described by CHERMAT R. and PONCELET M. in J. Pharmac. (1983), 14, No. 1, p. 93-97. The dose of apomorphine administered subcutaneously was 1 mg.kg^-1. Tables VII and VIII show the percentage antagonism of the hypothermia observed after 2 hours.

The test system of assay [3] is apomorphine-induced rearing-up. Description: Antagonism of apomorphine-induced rearing-up behavior in mice. Type of assay: in vivo. Conditions: Mus musculus, ip, apomorphine 0.75 mg.kg^-1 s.c. Here is the method:
Studied in the test of antagonism of apomorphine-induced rearing-up following the subcutaneous administration of a dose of 0.75 mg.kg^-1 of this substance in mice, the compounds of general formula I act in a clear-cut manner at doses greater than or equal to 2.5 mg.kg^-1 (i.p.). The same results are observed when the compounds of general formula I are administered orally at a dose of 20 mg.kg^-1. The activity of the compounds was assessed according to the method described by Protais P, Costentin J and Schwartz J. C. in Psychopharmacology (1976), 50, p. 1-6.
(s=significant difference, p<0.05).

In assay [4] the test system is apomorphine-induced stereotypy. Description: Antagonism of apomorphine-induced stereotypy in rats. Type of assay: in vivo. To be noted: Rattus norvegicus, ip, 0.5 h, apomorphine 1.5 mg.kg^-1 i.p., 30 minutes. The protocol: The inhibitory activity of the compounds of the invention with respect to apomorphine- or amphetamine-induced stereotypy in rats was assessed using the scale of scoring of stereotyped movements described by Quinton R. M. and Halliwell G. in Nature (1963), 200, p. 178-179.
Apomorphine or amphetamine was administered to the animals intraperitoneally at a dose of 1.5 mg.kg^-1. The percentage inhibition (-) or potentiation (+) of the stereotypy score (% ISS) shown in Tables IV and V for apomorphine corresponds to a measurement time of 30 minutes. In contrast, the percentage inhibition of the stereotypy score shown in Table VI for amphetamine corresponds to a measurement time of 3 hours. […]

Assay [5] concerns reserpine-induced hypothermia. Description: Antagonism of reserpine-induced hypothermia. In kind it is in vivo, Swiss CD male mice. To be noted: mice, reserpine 2.5 mg.kg^-1 i.p. Here is the method:
The antidepressant effects of the compounds of the invention were investigated by assessing the antagonism of reserpine-induced hypothermia and the antagonism of the ponto-geniculo-occipital waves induced by the compound Ro4-1284 in cats.
The study is carried out on Swiss CD male mice (27-28 g). After distribution into groups of 10 animals each, reserpine is injected intraperitoneally at a dose of 2.5 mg.kg^-1. Three hours later, the compounds undergoing trial are administered intraperitoneally. The rectal temperature of the animals is measured one hour and two hours after the second treatment, and compared with the initial temperature To of these same animals, measured immediately before the administration of the compounds undergoing trial.

The mark [6] stands for this setting: 2 h, read-out: % antagonism of hypothermia, mice, i.p. dose 10.
The mark [7] stands for this setting: 2 h, read-out: % antagonism of hypothermia, mice, i.p. dose 20.
The mark [8] stands for this setting: read-out: % inhibition of rearing-up, mice, i.p. dose 20 mg.kg^-1.
Setting [9] is: read-out: % inhibition of rearing-up, mice, i.p. dose 40 mg.kg^-1.
Where [10] appears, read: read-out: % ISS (inhibition (-) or potentiation (+) of the stereotypy score), rats, i.p. dose 10 mg.kg^-1.
The mark [11] stands for this setting: read-out: % inhibition of rearing-up, mice, i.p. dose 10 mg.kg^-1.
[12] abbreviates: rats, i.p. dose 10 mg.kg^-1, read-out: % ISS (inhibition (-) or potentiation (+) of the stereotypy score).
[13] abbreviates: mice, i.p. dose 10, read-out: % antagonism of hypothermia.
The mark [14] stands for this setting: mice, i.p. dose 20, read-out: % antagonism of hypothermia.
The mark [15] stands for this setting: mice, i.p. dose 10 mg.kg^-1, read-out: % inhibition of rearing-up.
[16] abbreviates: mice, i.p. dose 20 mg.kg^-1, read-out: % inhibition of rearing-up.
Where [17] appears, read: rats, i.p. dose 20 mg.kg^-1, read-out: % ISS (inhibition (-) or potentiation (+) of the stereotypy score).
The mark [18] stands for this setting: mice, i.p. dose 40 mg.kg^-1, read-out: % inhibition of rearing-up.

Where a name gives a salt, the structure may show the parent alone. Read-outs that look alike come from different tables or passages of the source.

Turning to `CCCN(CCC)C1CCc2cc3c(cc2C1)OCC3` (racemic) [Example 5, dl-7-(N,N-Dipropylamino)-2,3,5,6,7,8-hexahydronaphtho[2,3-b]furan], the “% of pairs of mice showing no sign of fighting” value in assay [1] (20 mg.kg^-1) came to 50%; in assay [1] (40 mg.kg^-1), 89%. For the same compound, the change in vivo at 5 mg/kg in assay [2] (2 h, read-out: % antagonism of hypothermia, mice, i.p. dose 5) is -20%; in assay [4] (read-out: % ISS (inhibition (-) or potentiation (+) of the stereotypy score), rats, i.p. dose 5 mg.kg^-1), -3%. The change in vivo at 10 mg/kg is -47% in assay [2] (setting [6]) and 0% in assay [4] (setting [10]). Besides, the change in vivo at 20 mg/kg was -68% in assay [2] (setting [7]) and 27% in assay [3] (setting [8]). In assay [3] (setting [9]), the change in vivo at 40 mg/kg was -54%.

Take `CN(CC1CCCCC1)C1CCc2cc3c(cc2C1)OCC3` (racemic) [Example 10, dl-7-(N-Cyclohexylmethyl-N-methylamino)-2,3,5,6,7,8-hexahydronaphtho[2,3-b]furan hydrochloride]: the figures for the “% of pairs of mice showing no sign of fighting” value in assay [1] (5 mg.kg^-1), in assay [1] (10 mg.kg^-1) and in assay [1] (20 mg.kg^-1) were 0%, 11% and 60%, respectively. Besides, the change in vivo at 10 mg/kg in assay [3] (setting [11]) came to 11%. In addition, the change in vivo at 20 mg/kg in assay [3] (setting [8]) is 11%. For the same compound, the change in vivo at 40 mg/kg in assay [3] (setting [9]) is -96%.

For the compound `NC1CCCc2cc3c(cc21)OCC3` (racemic) [Example 15, dl-8-Amino-2,3,5,6,7,8-hexahydronaphtho[2,3-b]furan hyrochloride], the change in vivo at 20 mg/kg in assay [3] (setting [8]) was -9%. For the same compound, the change in vivo at 40 mg/kg in assay [3] (setting [9]) was 0%.

For the compound `NC1CCCc2cc3c(cc21)CCO3` (racemic) [Example 18, dl-5-Amino-2,3,5,6,7,8-hexahydronaphtho[2,3,-b]furan hydrochloride], in assay [3] (setting [8]), the change in vivo at 20 mg/kg was -12%. In addition, the change in vivo at 40 mg/kg in assay [3] (setting [9]) was 6%.

For the compound `NC1CCc2cc3c(cc2C1)CCO3` (racemic) [Example 19, dl-6-Amino-2,3,5,6,7,8-hexahydronaphtho[2,3-b]furan hydrochloride], in assay [3] (setting [8]), the change in vivo at 20 mg/kg was -57%. Further, in assay [3] (setting [9]), the change in vivo at 40 mg/kg is -90%.

`NC1CCc2cc3ccoc3cc2C1` (racemic) [Example 21, dl-7-Amino-5,6,7,8-tetrahydronaphtho[2,3-b]furan hydrochloride]: the change in vivo at 10 mg/kg in assay [3] (setting [11]) is -56%. The change in vivo at 20 mg/kg in assay [3] (setting [8]) was -84%.

As to `O=C(O)CCCCCNC1CCc2cc3c(cc2C1)OCC3` (racemic) [Example 25, dl-6-{N-(2,3,6,7,8-Hexahydronaphtho[2,3-b]furan-7-yl)amino}hexanoic acid hydrochloride], the “% of pairs of mice showing no sign of fighting” value in assay [1] (10 mg.kg^-1) is recorded as 20%. Also, the change in vivo at 10 mg/kg in assay [4] (setting [12]) was found to be 9%.

As to `CC(CCCC(=O)O)NC1CCc2cc3c(cc2C1)OCC3` (racemic) [Example 27], the change in vivo at 10 mg/kg is -5% in assay [2] (setting [13]), -46% in assay [3] (setting [15]) and -5% in assay [4] (setting [12]). Also, the change in vivo at 20 mg/kg in assay [2] (setting [14]) is -32%; in assay [3] (setting [16]), -63%; in assay [4] (setting [17]) it was -8%. In addition, the “% inhibition of hypothermia” value was -13% in assay [5] (10 mg.kg^-1 i.p.) and -21% in assay [5] (20 mg.kg^-1 i.p.).

Consider `CC(CCCCC(=O)O)NC1CCc2cc3c(cc2C1)OCC3` (racemic) [Example 29, dl-6-{N-(2,3,5,6,7,8-Hexahydronaphtho[2,3-b]furan-7-yl)amino}-6-methylhexanoic acid hydrochloride], for which the change in vivo at 10 mg/kg in assay [4] (setting [12]) was 11%.

As for `CC(CCCCCC(=O)O)NC1CCc2cc3c(cc2C1)OCC3` (racemic) [Example 31, dl-7-{N-(2,3,5,6,7,8-Hexahydronaphtho[2,3-b]furan-7-yl)amino}-7-methylheptanoic acid hydrochloride], the change in vivo at 20 mg/kg in assay [3] (setting [16]) was 5%; in assay [4] (setting [17]) it was -3%. Besides, the change in vivo at 40 mg/kg in assay [3] (setting [18]) was 22%. Besides, the change in vivo at 10 mg/kg in assay [4] (setting [12]) is 5%.

Turning to `OCCCCCCNC1CCc2cc3c(cc2C1)OCC3` (racemic) [Example 32, dl-7-[N-(6-Hydroxyhexyl)amino]-2,3,5,6,7,8-hexahydronaphtho[2,3-b]furan hydrochloride], the entries for the “% of pairs of mice showing no sign of fighting” value in assay [1] (5 mg.kg^-1) and in assay [1] (20 mg.kg^-1) were 10% and 30%, respectively. Further, the change in vivo at 10 mg/kg in assay [2] (setting [13]) is -10%; in assay [4] (setting [12]), -3%. For the same compound, the figures for the change in vivo at 20 mg/kg in assay [2] (setting [14]), in assay [3] (setting [16]) and in assay [4] (setting [17]) were -13%, -32% and -5%, respectively. Further, the “% inhibition of hypothermia” value in assay [5] (10 mg.kg^-1 i.p.) was -1%; in assay [5] (20 mg.kg^-1 i.p.), -29%. For the same compound, the change in vivo at 40 mg/kg in assay [3] (setting [18]) is -40%.

`CCCNC1CCc2cc3c(cc2C1)OCC3` (racemic) [Example 34, dl-7-N-n-Propylamino)-2,3,5,6,7,8-hexahydronaphtho[2,3,-b]furan hydrochloride]: the change in vivo at 10 mg/kg was -7% in assay [2] (setting [6]), -23% in assay [3] (setting [11]) and -68% in assay [4] (setting [10]). In addition, the change in vivo at 20 mg/kg in assay [2] (setting [7]) was -16%; in assay [4] (read-out: % ISS (inhibition (-) or potentiation (+) of the stereotypy score), rats, i.p. dose 20 mg.kg^-1) it was -70%. Moreover, the change in vivo at 40 mg/kg in assay [3] (setting [9]) was -100%.

As for `FC(F)(F)CNC1CCc2cc3c(cc2C1)OCC3` (racemic) [Example 35, dl-7-[N-(2,2,2-Trifluoroethyl)amino]-2,3,5,6,7,8-hexahdronaphtho[2,3-b]furan hydrochloride], the values for the change in vivo at 10 mg/kg in assay [2] (setting [13]) and in assay [3] (setting [15]) were -16% and -30%, respectively. The values for the change in vivo at 20 mg/kg in assay [2] (setting [14]) and in assay [3] (setting [16]) were -31% and -38%, respectively. Besides, the “% inhibition of hypothermia” value in assay [5] (10 mg.kg^-1 i.p.) is -20%; in assay [5] (20 mg.kg^-1 i.p.) it was -4%.

With `O=C1CCCN1C1CCc2cc3c(cc2C1)OCC3` (racemic) [Example 37, dl-7-(2-Oxo-1-pyrrolidinyl)-2,3,5,6,7,8-hexahydronaphtho[2,3-b]furan], in assay [4] (setting [12]), the change in vivo at 10 mg/kg was -6%. Moreover, the change in vivo at 20 mg/kg in assay [4] (setting [17]) is -14%.

The values are drawn from US4863951A, “Pharmacologically active amino-5,6,7,8-tetrahydronaphtho [2,3-B] furan compounds” (ADIR Et Cie, priority 1987, dated 1989).
